The results in this text go back to US11930819B2, “Antimicrobial compositions with enhanced efficacy” (ECOLAB USA INC., priority 2017, dated 2024).

Entries after “also recorded” stand apart in the source; their conditions may differ.

What all share (type): cell-based
Test [1] deals with Serratia marcescens ATCC 14756. Description: Time Kill Efficacy, chelant comparison. The conditions noted are these: chelant added to cationic active-containing base formula. How it is done: Testing was performed to assess performance of differing chelants. Multiple amino acid based chelants were tested in exemplary compositions of the invention and tested against a control formulation containing no chelant.
Formula 5A served as the control having no chelant. Formulas 5B and 5C included GLDA and MGDA, respectively, for comparative testing against each other and the control. The compositions were inoculated with Serratia marcescens ATCC 14756 for 30 seconds at room temperature. Before adding the antimicrobial compositions, the inoculum numbers were measured (CFO/mL). The average count was […] providing a log average of 8.06. The inoculated surface was contacted with the various formulations for 30 seconds and the log reduction was measured.

For test [2], the system named is Escherichia coli ATCC 11229. Description: in vitro Time Kill testing (ASTM E 2315), cationic-compatible surfactants, Table 4. The note with it: 1% surfactant in 0.2% benzalkonium chloride formula. As to the method: In Examples 1-4, the survival of challenged organisms exposed to an antimicrobial test composition was measured using in vitro Time Kill testing, based on ASTM E 2315 Standard Guide for Assessment of Antimicrobial Activity Using a Time Kill Procedure. Utilizing this method, the inoculum is prepared by growing a microbial culture using a D/E agar medium. The microbial population then is washed from the agar with sterile physiological saline and the population of the microbial suspension is adjusted to around 10^8 colony forming units (cfu) per ml. An aliquot of the test formula, or a dilution thereof, is brought into contact with this known population of bacteria at ambient temperature. The test composition is neutralized after a set amount of time, which arrests the antimicrobial activity of the test sample. The log reduction from the original bacteria population is calculated using the following formula: log10 reduction=log10(control)−log10(test sample survivors) Each test was performed in duplicate and the average log reduction reported. The efficacy of formulations with differing cationic-compatible surfactants with the same alkyl chain length is outlined in Tables 3 and 4. In each instance, citric acid and/or potassium hydroxide were used to maintain a pH of 6, and water was added quantum satis. […]

The test system of test [3] is Serratia marcescens ATCC 14756. Kind of test: in vitro Time Kill testing (ASTM E 2315), Serratia marcescens. The note with it: 1.2% cationic surfactant with 0.6% benzalkonium chloride, Table 6. How it is done:
In Examples 1-4, the survival of challenged organisms exposed to an antimicrobial test composition was measured using in vitro Time Kill testing, based on ASTM E 2315 Standard Guide for Assessment of Antimicrobial Activity Using a Time Kill Procedure. Utilizing this method, the inoculum is prepared by growing a microbial culture using a D/E agar medium. The microbial population then is washed from the agar with sterile physiological saline and the population of the microbial suspension is adjusted to around 10^8 colony forming units (cfu) per ml. An aliquot of the test formula, or a dilution thereof, is brought into contact with this known population of bacteria at ambient temperature. The test composition is neutralized after a set amount of time, which arrests the antimicrobial activity of the test sample. The log reduction from the original bacteria population is calculated using the following formula: log10 reduction=log10(control)−log10(test sample survivors) Each test was performed in duplicate and the average log reduction reported.
Once it was determined that cationic surfactants with chain lengths having 18 or less carbons provided enhanced microbiological efficacy, three such cationic surfactants were evaluated against Serratia marcescens, a Gram negative microorganism. […]

Take `CC(C(=O)O)N(CC(=O)O)CC(=O)O` (stereo not drawn) [MGDA, Methylglycinediacetic acid]: in test [1], the “effect of chelant on antimicrobial efficacy of base formula” value is listed as “significantly enhance the biocidal activity; also recorded: much higher log reduction”.
Turning to Cocamidopropyl Betaine, in test [2], the “impact on microbiological efficacy” value is reported as “significant negative impact on microbiological efficacy”.
Regarding `O=C(O)CC[C@@H](C(=O)O)N(CC(=O)O)CC(=O)O` [GLDA, Glutamic acid diacetic acid], the “effect of chelant on antimicrobial efficacy of base formula” value in test [1] is recorded as “did not show any enhancement of antimicrobial efficacy”.
As to Coco Glucoside, the “impact on microbiological efficacy” value in test [2] is “negative impact on microbiological efficacy”.
For `CCCCCCCCCCCC[N+](C)(C)C.[Cl-]` [Laurtrimonium chloride, Lauryl Trimethyl Ammonium Chloride], the “degree of microbiological efficacy” value in test [3] is on record as “highest degree of efficacy”.
On the same count and under the same terms, with `CCCCCCCCCCCCCCCC(=O)NCCC[N+](C)(C)C.[Cl-]` [Palmitamidopropyl trimonium chloride, Palmitamidopropyl Trimonium Chloride] the entry was “lowest degree of microbiological efficacy”.
